Tests used:
N-terminus of APP = test: Co-immunoprecipitation and co-localisation with N-terminal APP in CHO/APPwt cells; type: binding, human; settings: peptides 10 μM or apoE 10 μg/mL, 2 h; IP with 6H3B5 or pN-APP
Description: Total secreted APP (t-sAPP) and full-length APP (f-APP) in total (inputs), immunoprecipitates and immunodepleted media and lysates were determined by WB using 22C11 or anti-C-terminal APP751/70 antibody (pC-APP), respectively (FIG. 20A left panels and FIG. 20B, top panels). Alternatively, conditioned media and cell lysates were IP with anti-N-terminal APP41/66 antibody (pN-APP) and apoE, or 6KApoEp and ApoEp, was determined using anti-human apoE antibody (ApoE1H4; FIG. 20A, right panels) or 6H3B5, respectively (FIG. 20B, bottom panels). In addition, CHO/APPwt cells were plated at 8 well-chambers at 1×10^5/well for 24 h, treated with 6K, ApoEp or 6KApoEp at 10 μM for 2 h, fixed in 4% paraformaldehyde and stained with 6H3B5 and pN-APP antibodies (FIG. 20C). Alexa Fluor 488 goat anti-mouse IgG (green) was used to detect ApoEp and 6KApoEp, while Alexa Fluor 594 donkey anti-rabbit IgG (red) was used to detect N-terminal APP. DAPI co-staining was done to show nuclear DNA. Homogenates prepared from three TgAPPwt mice (2 female/1 male), two AD patients (AD1[…], AD2[…]) and two normal age-matched control cortices (Ctrl1[…], Ctrl2[…]) were also IP with 6H3B5 or pN-APP and t-APP and apoE were determined using 6E10 and mApoE, respectively (FIGS. 20D-20E).
Total secreted APP in conditioned media and full length APP in cell lysates were then determined by WB using anti-N-terminal (22C11) and anti-C-terminal APP antibodies (pC-APP), respectively. […] In addition, ApoEp and 6KApoEp colocalized with N-terminal APP in cultured CHO/APPwt cells as determined by immunofluorescence staining with 6H3B5 and pN-APP antibodies (FIG. 20C), respectively, confirming that N-terminal APP physically associates with apoE in cell culture. […]
WB analyses were performed as previously described^43,44. […] For all other proteins detected by WB, 10% tris-SDS gels were used. Densitometry analysis was performed as previously described using a FluorS Multiimager with Quantity One™ software 43. […]

[1] = tested on: N-terminal APP (sAPPα, sAPPβ, APP31/60); test: In vitro co-immunoprecipitation with recombinant sAPPα/β and APP31/60; type: binding, human; settings: sAPPα 100 nM, apoE4 100 nM, 6KApoEp or 6K at 5 or 10 μM, 1 h, 37° C.; P<0.05 at 10 μM
N-terminal APP (sAPPα, sAPPβ, APP31/60), sequence (P05067 18-189 limits assumed): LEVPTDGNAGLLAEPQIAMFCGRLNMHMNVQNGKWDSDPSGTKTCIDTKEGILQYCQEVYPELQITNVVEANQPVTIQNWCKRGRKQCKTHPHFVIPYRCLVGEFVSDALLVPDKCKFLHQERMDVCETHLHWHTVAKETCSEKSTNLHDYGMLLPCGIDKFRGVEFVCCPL

N-terminus of APP, sequence (P05067 18-189 limits assumed): as above

Question: For “6K: 6 lysines control peptide (KKKKKK) [reference compound]”, which “immunoprecipitation and localization with N-terminal APP” value (N-terminus of APP) is on record?
Answer: but not 6K, immunoprecipitated and localized with N-terminal APP

Question: And the “co-immunoprecipitation of sAPPα with apoE4 (apoE4/sAPPα band density ratio)” value [1]?
Answer: but not 6K, reduced co-immunoprecipitation of sAPPα with apoE4
